Laboratory results as given in patent US7501417B2, “Aminocarbonyl-derivatives as novel inhibitors of histone deacetylase” (Janssen Pharmaceutica, N.V., priority 2002, dated 2009).
Values after ≈ are worked out from the molar mass of the structure shown.

Columns and labels:
[1] = target: HDAC (HeLa nuclear extracts); assay: In vitro assay for inhibition of histone deacetylase; type: biochemical; conditions: [3H]acetylated histone H4 peptide substrate
Method: The in vitro assay for inhibition of histone deacetylase (see example C.1) measures the inhibition of HDAC enzymatic activity obtained with the compounds of formula (I).
HeLa nuclear extracts (supplier: Biomol) were incubated at 60 μg/ml with 2×10^−8 M of radiolabeled peptide substrate. As a substrate for measuring HDAC activity a synthetic peptide, i.e. the amino acids 14-21 of histone H4, was used. The substrate is biotinylated at the NH2-terminal part with a 6-aminohexanoic acid spacer, and is protected at the COOH-terminal part by an amide group and specifically [^3H]acetylated at lysine 16. The substrate, biotin-(6-aminohexanoic)Gly-Ala-([^3H]-acetyl-Lys-Arg -His-Arg-Lys-Val-NH2), was added in a buffer containing 25 mM Hepes, 1 M sucrose, 0.1 mg/ml BSA and 0.01% Triton X-100 at pH 7.4. After 30 min the deacetylation reaction was terminated by the addition of HCl and acetic acid. (final concentration 0.035 mM and 3.8 mM respectively). After stopping the reaction, the free ^3H-acetate was extracted with ethylacetate. After mixing and centrifugation, the radioactivity in an aliquot of the upper (organic) phase was counted in a β-counter.
For each experiment, controls (containing HeLa nuclear extract and DMSO without compound), a blank incubation (containing DMSO but no HeLa nuclear extract or compound) and samples (containing compound dissolved in DMSO and HeLa nuclear extract) were run in parallel. In first instance, compounds were tested at a concentration of 10^−5M. […] In each test the blank value was subtracted from both the control and the sample values. The control sample represented 100% of substrate deactylation. For each sample the radioactivity was expressed as a percentage of the mean value of the controls. […] Herein the effects of test compounds are expressed as pIC50 (the negative log value of the IC50-value).

[2] = test system: A2780 ovarian carcinoma cells; assay: Determination of antiproliferative activity on A2780 cells (MTT); type: cell-based; conditions: Homo sapiens, 96 h, four days of incubation, read-out: Cellular activity pIC50 (converted)
Method: Cellular activity of the compounds of formula (I) was determined on A2780 tumour cells using a colorimetric assay for cell toxicity or survival (Mosmann Tim, Journal of Immunological Methods 65: 55-63, 1983)(see example C.2).
All compounds tested were dissolved in DMSO and further dilutions were made in culture medium. Final DMSO concentrations never exceeded 0.1% (v/v) in cell proliferation assays. Controls contained A2780 cells and DMSO without compound and blanks contained DMSO but no cells. MTT was dissolved at 5 mg/ml in PBS. A glycine buffer comprised of 0.1 M glycine and 0.1 M NaCl buffered to pH 10.5 with NaOH (1 N) was prepared (all reagents were from Merck).
The human A2780 ovarian carcinoma cells (a kind gift from Dr. T. C. Hamilton [Fox Chase Cancer Centre, Pennsylvania, USA]) were cultured in RPMI 1640 medium supplemented with 2 mM L-glutamine, 50 μg/ml gentamicin and 10% fetal calf serum. Cells were routinely kept as monolayer cultures at 37° C. in a humidified 5% CO2 atmosphere. Cells were passaged once a week using a trypsin/EDTA solution at a split ratio of 1:40. All media and supplements were obtained from Life Technologies. Cells were free of mycoplasma contamination as determined using the Gen-Probe Mycoplasma Tissue Culture kit (supplier: BioMérieux).
Cells were seeded in NUNC™ 96-well culture plates (Supplier: Life Technologies) and allowed to adhere to the plastic overnight. Densities used for plating were 1500 cells per well in a total volume of 200 μl medium. After cell adhesion to the plates, medium was changed and drugs and/or solvents were added to a final volume of 200 μl. Following four days of incubation, medium was replaced by 200 μl fresh medium and cell density and viability was assessed using an MTT-based assay. To each well, 25 μl MTT solution was added and the cells were further incubated for 2 hours at 37° C. The medium was then carefully aspirated and the blue MTT-formazan product was solubilized by addition of 25 μl glycine buffer followed by 100 μl of DMSO. […] Within an experiment, the results for each experimental condition are the mean of 3 replicate wells. For initial screening purposes, compounds were tested at a single fixed concentration of 10^−6 M. For active compounds, the experiments were repeated to establish full concentration-response curves. For each experiment, controls (containing no drug) and a blank incubation (containing no cells or drugs) were run in parallel. The blank value was subtracted from all control and sample values. For each sample, the mean value for cell growth (in absorbance units) was expressed as a percentage of the mean value for cell growth of the control. […] Herein the effects of test compounds are expressed as pIC50 (the negative log value of the IC50-value).

[3] = Kinetic solubility in aqueous media (nephelometry); type: physicochemical; conditions: aqueous buffer, kinetic from dmso stock; phosphate citrate buffer pH 7.4, turbidity of three dilution steps; read-out: Solubility Score
Method: Kinetic solubility in aqueous media measures the ability of a compound to stay in aqueous solution upon dilution (see example C.3).
DMSO-stock solutions are diluted with a single aqueous buffer solvent in 3 consecutive steps. For every dilution turbidity is measured with a nephelometer.
In the first dilution step, 10 μl of a concentrated stock-solution of the active compound, solubilized in DMSO (5 mM), was added to 100 μl phosphate citrate buffer pH 7.4 and mixed. In the second dilution step, an aliquot (20 μl) of the first dilution step was further dispensed in 100 μl phosphate citrate buffer pH 7.4 and mixed. Finally, in the third dilution step, a sample (20 μl) of the second dilution step was further diluted in 100 μl phosphate citrate buffer pH 7.4 and mixed. All dilutions were performed in 96-well plates. Immediately after the last dilution step the turbidity of the three consecutive dilution steps were measured with a nephelometer. Dilution was done in triplicate for each compound to exclude occasional errors. Based on the turbidity measurements a ranking is performed into 3 classes. Compounds with high solubility obtained a score of 3 and for this compounds the first dilution is clear. Compounds with medium solubility obtained a score of 2. For these compounds the first dilution is unclear and the second dilution is clear. […] The solubility of 3 compounds was measured.

| SMILES | Enzyme activity pIC50 [1] | IC50 [2] [nM] | solubility [3] [µM] | melting point [°C] |
| --- | --- | --- | --- | --- |
| O=C(NO)c1cnc(N2CCN(C(=O)Nc3ccc(-c4ccccc4)cc3)CC2)nc1 [Co. No. 6] | 7.728 | 277 | > 454 | > 260 |
| Cc1ccc(NC(=O)N2CCN(c3ccc(NC(=O)CS)cc3)CC2)cc1 [Co. No. 3] | 5.332 | > 10000 |  |  |
| Cc1ccc(NC(=O)N2CCN(c3ccc(C(=O)NCCO)cc3)CC2)cc1 [Co. No. 2] | <5 | > 10000 |  |  |
| O=C(NCC1CCN(c2ncc(C(=O)NO)cn2)CC1)Nc1ccc(-c2ccccc2)cc1 [Co. No. 5] | 7.65 | 711 | 75.8 to 454 (≈ 33.8 to 203 µg/mL) | > 260 |
| CN(C(=O)N1CCN(c2ncc(C(=O)NO)cn2)CC1)c1ccccc1 [compound 48] | 7.163 | 723 |  |  |
| Cc1cccc(C)c1NC(=O)N1CCN(c2ccc([N+](=O)[O-])cc2C(=O)NO)CC1 [compound 30] | >5 |  |  |  |
| O=C(NO)c1cnc(N2CCN(C(=O)N(c3ccccc3)c3ccccc3)CC2)nc1 [Co. No. 4] | 7.127 | 769 |  |  |
| Cc1ccc(NC(=O)N2CCN(c3ccc(C(=O)NO)cc3)CC2)cc1 [Co. No. 1] | 6.754 | 4700 | < 75.8 |  |
